Test [1] deals with cultured rat pituitary cells. The test can be described thus: Secretion of ACTH and β-endorphin by cultured rat pituitary cells. The note with it: for Stimulation of secretion of ACTH and β-END-LI (in words): general procedure set forth in Example III, in vitro or in vivo not specified. The format is cell-based. The procedure: (§1) The synthetic and the natural CRF were examined for their effects on the secretion of ACTH and β-endorphin in vitro and the synthetic CRF was also examined in vivo. The high potency of synthetic and natural CRF to stimulate the secretion of ACTH and β-endorphin by cultured rat pituitary cells was measured. […] The secretory response to maximal (>5 nM) concentrations of CRF is at a plateau level. In vivo doses from 30 ng to 3 μg/Kg of body weight rapidly elevated ACTH and β-endorphin-like (β-END-LI) secretions 5-20 fold.

The test system of test [2] is ACTH and β-END-LI secretion. The test can be described thus: ACTH and β-END-LI secretion in vivo in rat preparations. The procedure: as §1
(§2) Plasma levels of ACTH and β-END-LI are elevated for at least 5-20 minutes following the intravenous administration of CRF to nembutal-anesthesized male rats and to quiescent male or female rats with indwelling intravenous cannulae. […] Mean cartoid blood pressure in a urethane-anesthesized rat fell from 87 to 72±2 mm Hg and remained at that level for 30 minutes following an injection equal to 3 μg CRF/Kg body weight; the subsequent administration of an injection equal to 30 μg CRF/Kg body weight lowered mean blood pressure to 42±3 mm Hg for more than 2 hours.

Test [3] can be described thus: Blood pressure in rats (mean carotid blood pressure, urethane-anesthetized rat). The test is classed as in vivo. The note with it: for Effect upon blood pressure (in words): rats; for Lowering of blood pressure (in words): general procedure set forth in Example III. As to the method:
as §2

A further test in a line: Blood pressure in dogs. The test is classed as in vivo.
The conditions of test [4]: cited from earlier work.
The subject of test [5] is secretion of ACTH and β-endorphin. The following applies: cited from earlier work.
Setting [6] is: urethane-anesthetized rat, subsequent 30 μg CRF/Kg body weight.

The text below walks through data of US4415558A, “CRF And analogs” (The Salk Institute for Biological Studies, priority 1982, dated 1983).

Entries after “also recorded” stand apart in the source; their conditions may differ. [ ]: non-standard residue; d: D form. Nle = CCCC[C@H](N)C(=O)O

Consider “H-Ser-Gln-Glu-Pro-Pro-Ile-Ser-Leu-Asp-Leu-Thr-Phe-His-Leu-Leu-Arg-Glu-Val- Leu-Glu-Met-Thr-Lys-Ala-Asp-Gln-Leu-Ala-Gln-Gln-Ala-His-Ser-Asn-Arg-Lys-Leu-Leu-Asp-Ile-Ala-NH2 [synthetic CRF]”, for which the “Maximal concentrations (secretory response at a plateau level)” value in test [1] (cultured rat pituitary cells) is > 5 nM. Moreover, the EC50 in test [1] (cultured rat pituitary cells, concentration giving half-maximal response) is ~0.1 nM. For the same molecule, the “Minimal response, secretion of ACTH and β-endorphin” value in test [1] (cultured rat pituitary cells, concentration giving minimal response) is recorded as “about 10 picomolar”. Moreover, in test [1], the “Stimulation of ACTH and β-endorphin secretion in vitro (in words)” value is “stimulate ACTH and β-endorphin activies; also recorded: high potency”. For the same molecule, the “Stimulation of ACTH and β-END-LI secretion in vivo (in words)” value was “stimulate ACTH and β-endorphin activies” in test [2]; “powerful stimulator of ACTH and β-END-LI secretion” in test [2] (listed as Synthetic CRF). Moreover, the “Elevation of ACTH and β-endorphin-like (β-END-LI) secretions” value in test [2] (in vivo doses from 30 ng to 3 μg/Kg of body weight) is 5-20 fold. In addition, the “Time for which plasma levels of ACTH and β-END-LI are elevated” value in test [2] (intravenous administration, nembutal-anesthetized male rats and quiescent male or female rats with indwelling intravenous cannulae) fell in the range of 5 to 20 min. Further, the “Effect upon blood pressure (in words)” value in test [3] (listed as CRF) is “dramatic effect upon blood pressure”; in test [3] (listed as Synthetic CRF), “substantially lower blood pressure for an extended time period”; in “Blood pressure in dogs” it was “dramatic effect upon blood pressure”. Also, the “Time blood pressure remained at lowered level” value in test [3] (urethane-anesthetized rat, 3 μg CRF/Kg body weight) amounted to 30 min. Moreover, in test [3] (urethane-anesthetized rat, 3 μg CRF/Kg body weight, fell from 87), the “Mean carotid blood pressure after injection” value was 72±2 mm Hg. In addition, the “Duration of lowered mean blood pressure” value in test [3] (setting [6]) is listed as “more than 2 hours”. The “Mean blood pressure after subsequent injection” value in test [3] (setting [6]) was 42±3 mm Hg.
`CC[C@H](C)[C@H](NC(=O)[C@H](CC(=O)O)NC(=O)[C@H](CC(C)C)NC(=O)[C@H](CC(C)C)NC(=O)[C@H](CCCCN)NC(=O)[C@H](CCCNC(=N)N)NC(=O)[C@H](CC(N)=O)NC(=O)[C@H](CO)NC(=O)[C@H](Cc1c[nH]cn1)NC(=O)[C@H](C)NC(=O)[C@H](CCC(N)=O)NC(=O)[C@H](CCC(N)=O)NC(=O)[C@H](C)NC(=O)[C@H](CC(C)C)NC(=O)[C@H](CCC(N)=O)NC(=O)[C@H](CC(=O)O)NC(=O)[C@H](C)NC(=O)[C@H](CCCCN)NC(=O)[C@@H](NC(=O)[C@H](CCSC)NC(=O)[C@H](CCC(=O)O)NC(=O)[C@H](CC(C)C)NC(=O)[C@@H](NC(=O)[C@H](CCC(=O)O)NC(=O)[C@H](CCCNC(=N)N)NC(=O)[C@H](CC(C)C)NC(=O)[C@H](CC(C)C)NC(=O)[C@H](Cc1c[nH]cn1)NC(=O)[C@H](Cc1ccccc1)NC(=O)[C@@H](NC(=O)[C@H](CC(C)C)NC(=O)[C@H](CC(=O)O)NC(=O)[C@H](CC(C)C)NC(=O)[C@H](CO)NC(=O)[C@@H](NC(=O)[C@@H]1CCCN1C(=O)[C@@H]1CCCN1C(=O)[C@H](CCC(=O)O)NC(=O)[C@H](CCC(N)=O)NC(=O)[C@@H](N)CO)[C@@H](C)CC)[C@@H](C)O)C(C)C)[C@@H](C)O)C(=O)N[C@@H](C)C(N)=O` [natural CRF]: the “Stimulation of ACTH and β-endorphin secretion in vitro (in words)” value was “high potency” in test [1]; “stimulate ACTH and β-endorphin activies” in test [1] (listed as isolated CRF). Also, the “Stimulation of ACTH and β-END-LI secretion in vivo (in words)” value in test [2] is “stimulate ACTH and β-endorphin activies”.
Consider `CC[C@H](C)[C@H](NC(=O)[C@@H](NC(=O)[C@H](CC(=O)O)NC(=O)[C@H](CC(C)C)NC(=O)[C@H](CC(C)C)NC(=O)[C@H](CC(C)C)NC(=O)[C@H](CCCNC(=N)N)NC(=O)[C@H](CC(N)=O)NC(=O)[C@H](CC(N)=O)NC(=O)[C@H](C)NC(=O)[C@H](C)NC(=O)[C@H](CCC(N)=O)NC(=O)[C@H](CCC(N)=O)NC(=O)[C@H](CCCCN)NC(=O)[C@H](CCC(=O)O)NC(=O)[C@H](CCCCN)NC(=O)[C@H](CCC(=O)O)NC(=O)[C@H](CCC(N)=O)NC(=O)[C@H](CCCCN)NC(=O)[C@H](CCC(=O)O)NC(=O)[C@@H](NC(=O)[C@H](CCC(=O)O)NC(=O)[C@@H](NC(=O)[C@H](CCSC)NC(=O)[C@H](CCCCN)NC(=O)[C@H](CCCNC(=N)N)NC(=O)[C@H](CC(C)C)NC(=O)[C@H](CC(C)C)NC(=O)[C@H](CCC(=O)O)NC(=O)[C@H](CC(C)C)NC(=O)[C@H](CO)NC(=O)[C@H](CC(C)C)NC(=O)[C@H](CC(=O)O)NC(=O)[C@@H](NC(=O)[C@H](CO)NC(=O)[C@@H](NC(=O)[C@@H]1CCCN1C(=O)[C@@H]1CCCN1C(=O)CNC(=O)[C@@H]1CCC(=O)N1)[C@@H](C)CC)[C@@H](C)CC)[C@@H](C)CC)[C@@H](C)CC)[C@@H](C)O)C(N)=O` [Sauvagine], for which the “Lowering blood pressure in mammals (reported)” value in test [4] is on record as “lowering blood pressure in mammals”. Moreover, in test [5], the “Stimulating the secretion of ACTH and β-endorphin (reported)” value is “stimulating the secretion of ACTH and β-endorphin”.
Turning to `CC[C@H](C)[C@H](NC(=O)[C@H](CCC(=O)O)NC(=O)[C@@H](NC(=O)[C@H](CCSC)NC(=O)[C@H](CCCCN)NC(=O)[C@H](CCCNC(=N)N)NC(=O)[C@H](CC(C)C)NC(=O)[C@H](CC(C)C)NC(=O)[C@H](CCC(=O)O)NC(=O)[C@H](CC(C)C)NC(=O)[C@H](CO)NC(=O)[C@H](CC(C)C)NC(=O)[C@H](CC(=O)O)NC(=O)[C@@H](NC(=O)[C@H](CO)NC(=O)[C@@H](NC(=O)[C@@H]1CCCN1C(=O)[C@@H]1CCCN1C(=O)CNC(=O)[C@@H]1CCC(=O)N1)[C@@H](C)CC)[C@@H](C)CC)[C@@H](C)CC)C(=O)N[C@@H](CCC(=O)O)C(=O)N[C@@H](CCCCN)C(=O)N[C@@H](CCC(N)=O)C(=O)N[C@@H](CCC(=O)O)C(=O)N[C@@H](CCCCN)C(=O)N[C@@H](CCC(=O)O)C(=O)N[C@@H](CCCCN)C(=O)N[C@@H](CCC(N)=O)C(=O)N[C@@H](CCC(N)=O)C(=O)N[C@@H](C)C(=O)N[C@@H](C)C(=O)N[C@@H](CC(N)=O)C(=O)N[C@@H](CC(N)=O)C(=O)N[C@@H](CCCNC(=N)N)C(=O)N[C@@H](CC(C)C)C(=O)N[C@@H](CC(C)C)C(=O)N[C@@H](CC(C)C)C(=O)N[C@@H](CC(=O)O)C(=O)N[C@@H](C)C(=O)N[C@@H](C)C(N)=O` [[Ala^39, Ala^40]-sauvagine], in test [1], the “Stimulation of secretion of ACTH and β-END-LI (in words)” value (“Stimulation of secretion … (in words)” below) was “stimulates the secretion of ACTH and β-END-LI”. For the same molecule, the “Lowering of blood pressure (in words)” value in test [3] is given as “very significant lowering of blood pressure”.
In the case of `CC[C@H](C)[C@H](NC(=O)[C@@H](NC(=O)[C@H](CC(=O)O)NC(=O)[C@H](CC(C)C)NC(=O)[C@H](CC(C)C)NC(=O)[C@H](CC(C)C)NC(=O)[C@H](CCCNC(=N)N)NC(=O)[C@H](CC(N)=O)NC(=O)[C@H](CC(N)=O)NC(=O)[C@H](C)NC(=O)[C@H](C)NC(=O)[C@H](CCC(N)=O)NC(=O)[C@H](CCC(N)=O)NC(=O)[C@H](CCCCN)NC(=O)[C@H](CCC(=O)O)NC(=O)[C@H](CCCCN)NC(=O)[C@H](CCC(=O)O)NC(=O)[C@H](CCC(N)=O)NC(=O)[C@H](CCCCN)NC(=O)[C@H](CCC(=O)O)NC(=O)[C@@H](NC(=O)[C@H](CCC(=O)O)NC(=O)[C@@H](NC(=O)[C@H](CCSC)NC(=O)[C@H](CCCCN)NC(=O)[C@H](CCCNC(=N)N)NC(=O)[C@H](CC(C)C)NC(=O)[C@H](CC(C)C)NC(=O)[C@H](CCC(=O)O)NC(=O)[C@H](CC(C)C)NC(=O)[C@H](CO)NC(=O)[C@H](CC(C)C)NC(=O)[C@H](CC(=O)O)NC(=O)[C@@H](NC(=O)[C@H](CO)NC(=O)[C@@H](NC(=O)[C@@H]1CCCN1C(=O)[C@@H]1CCCN1)[C@@H](C)CC)[C@@H](C)CC)[C@@H](C)CC)[C@@H](C)CC)[C@@H](C)O)C(N)=O` [[des pGlu^1 -Gly^2]-sauvagine], the “Stimulation of secretion … (in words)” value in test [1] is “stimulates the secretion of ACTH and β-END-LI”. Also, in test [3], the “Lowering of blood pressure (in words)” value is “very significant lowering of blood pressure”.
Turning to `CC[C@H](C)[C@H](NC(=O)[C@H](CC(=O)O)NC(=O)[C@H](CC(C)C)NC(=O)[C@H](CC(C)C)NC(=O)[C@H](CCCCN)NC(=O)[C@H](CCCNC(=N)N)NC(=O)[C@H](CC(N)=O)NC(=O)[C@H](CO)NC(=O)[C@H](Cc1c[nH]cn1)NC(=O)[C@H](C)NC(=O)[C@H](CCC(N)=O)NC(=O)[C@H](CCC(N)=O)NC(=O)[C@H](C)NC(=O)[C@H](CC(C)C)NC(=O)[C@H](CCC(N)=O)NC(=O)[C@H](CC(=O)O)NC(=O)[C@H](C)NC(=O)[C@H](CCCCN)NC(=O)[C@@H](NC(=O)[C@H](CCSC)NC(=O)[C@H](CCC(=O)O)NC(=O)[C@H](CC(C)C)NC(=O)[C@@H](NC(=O)[C@H](CCC(=O)O)NC(=O)[C@H](CCCNC(=N)N)NC(=O)[C@H](CC(C)C)NC(=O)[C@H](CC(C)C)NC(=O)[C@H](Cc1c[nH]cn1)NC(=O)[C@H](Cc1ccccc1)NC(=O)[C@@H](NC(=O)[C@H](CC(C)C)NC(=O)[C@H](CC(=O)O)NC(=O)[C@H](CC(C)C)NC(=O)[C@H](CO)NC(=O)[C@@H](NC(=O)[C@@H]1CCCN1C(=O)[C@@H]1CCCN1)[C@@H](C)CC)[C@@H](C)O)C(C)C)[C@@H](C)O)C(=O)N[C@@H](C)C(N)=O` [[des Ser^1 -Gln^2 -Glu^3]-CRF], the “Stimulation of secretion … (in words)” value in test [1] was “stimulates the secretion of ACTH and β-END-LI”. Also, the “Lowering of blood pressure (in words)” value in test [3] is recorded as “very significant lowering of blood pressure”.
For the molecule “H-SQEPPISLDLTFYLLREVLE[Nle]TKADQLAQQAHSNRKLLDIA-NH2 [[Tyr^13, Nle^21]-CRF]”, in test [1], the “Stimulation of secretion … (in words)” value was “stimulates the secretion of ACTH and β-END-LI”. Further, the “Lowering of blood pressure (in words)” value in test [3] is “very significant lowering of blood pressure to a greater extent than CRF”.

As usually defined, the EC50 is the concentration needed to bring the measured effect to its halfway point.
